Reference: ChEMBL document CHEMBL3885861, “Open TG-GATES”

Species on record: Rattus norvegicus
Assay: Open TG-GATES - Regimen: Daily Repeat
Format: toxicity, organism-based, Sprague-Dawley
Parameters: regimen Daily Repeat, gender Male, age 6 weeks
Conditions: in vivo, po, route gavage; for APTT / Bas / Eos / Fbg / Hb / Ht / Lym / MCH / MCHC / MCV / Mono / Neu / PT / Plat / RBC / Ret / WBC: tissue Blood; for KIDNEY_L / KIDNEY_R / KIDNEY_TOTAL: tissue Kidney; for LIVER: tissue Liver; for A/G / ALP / ALT / AST / BUN / CRE / Ca / Cl / DBIL / GLC / IP / K / LDH / Na / PL / RALB / TBIL / TC / TG / TP / gamma-GTP: tissue Plasma
[1] = 100 mg/kg, 72 h, dose level Middle, time 3 day
[2] = 100 mg/kg, […], dose level Middle, time 7 day
[3] = 100 mg/kg, […], dose level Middle, time 14 day
[4] = 100 mg/kg, […], dose level Middle, time 28 day
[5] = 300 mg/kg, 72 h, dose level High, time 3 day
[6] = 300 mg/kg, […], dose level High, time 7 day
[7] = 300 mg/kg, […], dose level High, time 14 day
[8] = 300 mg/kg, […], dose level High, time 28 day

CCOC(=O)C(C)(C)Oc1ccc(Cl)cc1 [CLOFIBRATE]
TERMINAL_BW [1]: 242.5 g
APTT [1]: 18.9 s
Bas [1]: 0%
Eos [1]: 1%
Fbg [1]: 210.8 mg/dL
Hb [1]: 13.4 g/dL
Ht [1]: 38.4%
Lym [1]: 80.2%
MCH [1]: 21.6 pg
MCHC [1]: 35%
MCV [1]: 61.8 fL
Mono [1]: 2.6%
Neu [1]: 15.6%
PT [1]: 12.4 s
Plat [1]: 131.7 x10_4/uL
RBC [1]: 621.6 x10_4/ul
Ret [1]: 4.9%
WBC [1]: 117.6 x10_2/uL
KIDNEY_L [1]: 1.1 g
KIDNEY_R [1]: 1.1 g
KIDNEY_TOTAL [1]: 2.2 g
LIVER [1]: 12.5 g
A/G [1]: 1.7
ALP [1]: 1054.4 IU/L
ALT [1]: 38.2 IU/L
AST [1]: 70.2 IU/L
BUN [1]: 16 mg/dL
CRE [1]: 0.4 mg/dL
Ca [1]: 10.8 mg/dL
Cl [1]: 102.6 meq/L
DBIL [1]: 0.076 mg/dL
GLC [1]: 198.4 mg/dL
IP [1]: 6.3 mg/dL
K [1]: 4 meq/L
LDH [1]: 215 IU/L
Na [1]: 141 meq/L
PL [1]: 120 mg/dL
RALB [1]: 3.4 g/dL
TBIL [1]: 0.1 mg/dL
TC [1]: 55.6 mg/dL
TG [1]: 82.4 mg/dL
TP [1]: 5.4 g/dL
gamma-GTP [1]: 0.6 IU/L
TERMINAL_BW [2]: 270.9 g
TERMINAL_BW [3]: 321.6 g
TERMINAL_BW [4]: 398.1 g
APTT [2]: 22.7 s
Bas [2]: 0%
Eos [2]: 1%
Fbg [2]: 200.6 mg/dL
Hb [2]: 14 g/dL
Ht [2]: 40%
Lym [2]: 79.2%
MCH [2]: 21.2 pg
MCHC [2]: 35.1%
MCV [2]: 60.5 fL
Mono [2]: 3%
Neu [2]: 16.6%
PT [2]: 12.4 s
Plat [2]: 132.4 x10_4/uL
RBC [2]: 660.6 x10_4/ul
Ret [2]: 4.9%
WBC [2]: 99.6 x10_2/uL
APTT [3]: 20.3 s
Bas [3]: 0%
Eos [3]: 1%
Fbg [3]: 204.2 mg/dL
Hb [3]: 13.6 g/dL
Ht [3]: 39.5%
Lym [3]: 81.8%
MCH [3]: 20 pg
MCHC [3]: 34.3%
MCV [3]: 58.2 fL
Mono [3]: 2.6%
Neu [3]: 14.2%
PT [3]: 12.7 s
Plat [3]: 130.4 x10_4/uL
RBC [3]: 679 x10_4/ul
Ret [3]: 4.2%
WBC [3]: 153.1 x10_2/uL
APTT [4]: 21.7 s
Bas [4]: 0%
Eos [4]: 1.2%
Fbg [4]: 211.2 mg/dL
Hb [4]: 14.7 g/dL
Ht [4]: 41.8%
Lym [4]: 83.8%
MCH [4]: 19.1 pg
MCHC [4]: 35.1%
MCV [4]: 54.3 fL
Mono [4]: 2%
Neu [4]: 12.8%
PT [4]: 12.1 s
Plat [4]: 110.4 x10_4/uL
RBC [4]: 769.4 x10_4/ul
Ret [4]: 2.1%
WBC [4]: 141.2 x10_2/uL
KIDNEY_L [2]: 1.1 g
KIDNEY_R [2]: 1.2 g
KIDNEY_TOTAL [2]: 2.3 g
KIDNEY_L [3]: 1.3 g
KIDNEY_R [3]: 1.3 g
KIDNEY_TOTAL [3]: 2.6 g
KIDNEY_L [4]: 1.5 g
KIDNEY_R [4]: 1.5 g
KIDNEY_TOTAL [4]: 3 g
LIVER [2]: 14.5 g
LIVER [3]: 17 g
LIVER [4]: 20.1 g
A/G [2]: 1.9
ALP [2]: 856.8 IU/L
ALT [2]: 32.8 IU/L
AST [2]: 61 IU/L
BUN [2]: 16.8 mg/dL
CRE [2]: 0.4 mg/dL
Ca [2]: 10.4 mg/dL
Cl [2]: 102.8 meq/L
DBIL [2]: 0.07 mg/dL
GLC [2]: 211.2 mg/dL
IP [2]: 7.3 mg/dL
K [2]: 3.5 meq/L
LDH [2]: 207.2 IU/L
Na [2]: 141 meq/L
PL [2]: 108.8 mg/dL
RALB [2]: 3.7 g/dL
TBIL [2]: 0.1 mg/dL
TC [2]: 49.8 mg/dL
TG [2]: 53.4 mg/dL
TP [2]: 5.6 g/dL
gamma-GTP [2]: 1 IU/L
A/G [3]: 1.7
ALP [3]: 933 IU/L
ALT [3]: 38.4 IU/L
AST [3]: 63.4 IU/L
BUN [3]: 16.4 mg/dL
CRE [3]: 0.4 mg/dL
Ca [3]: 10.2 mg/dL
Cl [3]: 101.8 meq/L
DBIL [3]: 0.06 mg/dL
GLC [3]: 223.8 mg/dL
IP [3]: 6.1 mg/dL
K [3]: 3.8 meq/L
LDH [3]: 183.8 IU/L
Na [3]: 140.4 meq/L
PL [3]: 120.2 mg/dL
RALB [3]: 3.5 g/dL
TBIL [3]: 0.1 mg/dL
TC [3]: 55 mg/dL
TG [3]: 63.4 mg/dL
TP [3]: 5.6 g/dL
gamma-GTP [3]: 1 IU/L
A/G [4]: 1.7
ALP [4]: 726.6 IU/L
ALT [4]: 38.2 IU/L
AST [4]: 71 IU/L
BUN [4]: 15.8 mg/dL
CRE [4]: 0.4 mg/dL
Ca [4]: 10.5 mg/dL
Cl [4]: 102.4 meq/L
DBIL [4]: 0.08 mg/dL
GLC [4]: 208.6 mg/dL
IP [4]: 6.1 mg/dL
K [4]: 3.6 meq/L
LDH [4]: 236.8 IU/L
Na [4]: 141 meq/L
PL [4]: 132 mg/dL
RALB [4]: 3.8 g/dL
TBIL [4]: 0.1 mg/dL
TC [4]: 54.8 mg/dL
TG [4]: 106.2 mg/dL
TP [4]: 6 g/dL
gamma-GTP [4]: 1 IU/L
TERMINAL_BW [5]: 242 g
APTT [5]: 20.5 s
Bas [5]: 0%
Eos [5]: 1%
Fbg [5]: 199.2 mg/dL
Hb [5]: 13.2 g/dL
Ht [5]: 37.7%
Lym [5]: 73.8%
MCH [5]: 21 pg
MCHC [5]: 34.9%
MCV [5]: 60.3 fL
Mono [5]: 3.2%
Neu [5]: 21.8%
PT [5]: 12.3 s
Plat [5]: 125.3 x10_4/uL
RBC [5]: 625.4 x10_4/ul
Ret [5]: 3.9%
WBC [5]: 91.3 x10_2/uL
KIDNEY_L [5]: 1.1 g
KIDNEY_R [5]: 1.1 g
KIDNEY_TOTAL [5]: 2.2 g
LIVER [5]: 14.9 g
A/G [5]: 1.9
ALP [5]: 928.8 IU/L
ALT [5]: 42 IU/L
AST [5]: 70.2 IU/L
BUN [5]: 14.2 mg/dL
CRE [5]: 0.4 mg/dL
Ca [5]: 10.6 mg/dL
Cl [5]: 101.8 meq/L
DBIL [5]: 0.06 mg/dL
GLC [5]: 200.4 mg/dL
IP [5]: 5.9 mg/dL
K [5]: 3.9 meq/L
LDH [5]: 220.2 IU/L
Na [5]: 140.6 meq/L
PL [5]: 102.2 mg/dL
RALB [5]: 3.5 g/dL
TBIL [5]: 0.1 mg/dL
TC [5]: 43.6 mg/dL
TG [5]: 46.6 mg/dL
TP [5]: 5.3 g/dL
gamma-GTP [5]: 0.8 IU/L
TERMINAL_BW [6]: 267.7 g
TERMINAL_BW [7]: 303.4 g
TERMINAL_BW [8]: 368.7 g
APTT [6]: 21.4 s
Bas [6]: 0%
Eos [6]: 0.6%
Fbg [6]: 212.8 mg/dL
Hb [6]: 13.3 g/dL
Ht [6]: 38.9%
Lym [6]: 81.4%
MCH [6]: 20.9 pg
MCHC [6]: 34.3%
MCV [6]: 61.1 fL
Mono [6]: 3.2%
Neu [6]: 14.4%
PT [6]: 12.3 s
Plat [6]: 132.7 x10_4/uL
RBC [6]: 639.6 x10_4/ul
Ret [6]: 5.1%
WBC [6]: 129.1 x10_2/uL
APTT [7]: 21.9 s
Bas [7]: 0%
Eos [7]: 0.6%
Fbg [7]: 187.4 mg/dL
Hb [7]: 13.6 g/dL
Ht [7]: 39.6%
Lym [7]: 78.8%
MCH [7]: 19.9 pg
MCHC [7]: 34.4%
MCV [7]: 57.8 fL
Mono [7]: 3.4%
Neu [7]: 16.8%
PT [7]: 12.5 s
Plat [7]: 115.9 x10_4/uL
RBC [7]: 684.8 x10_4/ul
Ret [7]: 3.9%
WBC [7]: 125.1 x10_2/uL
APTT [8]: 22 s
Bas [8]: 0%
Eos [8]: 1%
Fbg [8]: 187.6 mg/dL
Hb [8]: 14.6 g/dL
Ht [8]: 41.5%
Lym [8]: 80.2%
MCH [8]: 19.1 pg
MCHC [8]: 35.1%
MCV [8]: 54.4 fL
Mono [8]: 3.4%
Neu [8]: 15.2%
PT [8]: 12.3 s
Plat [8]: 109.1 x10_4/uL
RBC [8]: 762.4 x10_4/ul
Ret [8]: 2%
WBC [8]: 121.5 x10_2/uL
KIDNEY_L [6]: 1.1 g
KIDNEY_R [6]: 1.2 g
KIDNEY_TOTAL [6]: 2.3 g
KIDNEY_L [7]: 1.3 g
KIDNEY_R [7]: 1.3 g
KIDNEY_TOTAL [7]: 2.6 g
KIDNEY_L [8]: 1.5 g
KIDNEY_R [8]: 1.6 g
KIDNEY_TOTAL [8]: 3.1 g
LIVER [6]: 18 g
LIVER [7]: 19.3 g
LIVER [8]: 21.8 g
A/G [6]: 2.1
ALP [6]: 1006.8 IU/L
ALT [6]: 31.4 IU/L
AST [6]: 62.8 IU/L
BUN [6]: 17.2 mg/dL
CRE [6]: 0.4 mg/dL
Ca [6]: 10.7 mg/dL
Cl [6]: 102 meq/L
DBIL [6]: 0.058 mg/dL
GLC [6]: 214.2 mg/dL
IP [6]: 7.4 mg/dL
K [6]: 3.5 meq/L
LDH [6]: 285 IU/L
Na [6]: 141.2 meq/L
PL [6]: 92.2 mg/dL
RALB [6]: 4 g/dL
TBIL [6]: 0.1 mg/dL
TC [6]: 37.6 mg/dL
TG [6]: 44.2 mg/dL
TP [6]: 5.9 g/dL
gamma-GTP [6]: 1 IU/L
A/G [7]: 2.2
ALP [7]: 750.6 IU/L
ALT [7]: 41.8 IU/L
AST [7]: 59.6 IU/L
BUN [7]: 17.6 mg/dL
CRE [7]: 0.4 mg/dL
Ca [7]: 10.5 mg/dL
Cl [7]: 101.4 meq/L
DBIL [7]: 0.062 mg/dL
GLC [7]: 228.2 mg/dL
IP [7]: 6.1 mg/dL
K [7]: 3.8 meq/L
LDH [7]: 172 IU/L
Na [7]: 140.4 meq/L
PL [7]: 113.2 mg/dL
RALB [7]: 4 g/dL
TBIL [7]: 0.1 mg/dL
TC [7]: 44 mg/dL
TG [7]: 46.4 mg/dL
TP [7]: 5.9 g/dL
gamma-GTP [7]: 0.8 IU/L
A/G [8]: 1.9
ALP [8]: 787 IU/L
ALT [8]: 43.4 IU/L
AST [8]: 70.8 IU/L
BUN [8]: 15.4 mg/dL
CRE [8]: 0.4 mg/dL
Ca [8]: 10.2 mg/dL
Cl [8]: 101.8 meq/L
DBIL [8]: 0.068 mg/dL
GLC [8]: 190 mg/dL
IP [8]: 5.1 mg/dL
K [8]: 3.6 meq/L
LDH [8]: 208.6 IU/L
Na [8]: 140.4 meq/L
PL [8]: 120.6 mg/dL
RALB [8]: 4 g/dL
TBIL [8]: 0.1 mg/dL
TC [8]: 46 mg/dL
TG [8]: 47.6 mg/dL
TP [8]: 6.1 g/dL
gamma-GTP [8]: 0.6 IU/L
